Results taken from ChEMBL document CHEMBL1201862, “PubChem BioAssay data set” (2004).
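The compound was tested at five concentrations on cells cultured in 96-well plates, with a 48-hour exposure period. Abbreviation: GI50, concentration required for 50% inhibition of growth.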 Calls of active or inactive are those of the source. No stated cut-off is given here; in the data, active = GI50 up to about 1.1 µM and inactive = higher.

Columns and labels:
Assay in all cases: inhibition of tumour cell growth, NCI panel, 48 h
M14 = tested on: M14
MDA-N = tested on: MDA-N
T47D = tested on: T47D
NCI-H226 = tested on: NCI-H226
UACC-62 = tested on: UACC-62
A498 = tested on: A498
MDA-MB-435 = tested on: MDA-MB-435
SNB-75 = tested on: SNB-75
786-0 = tested on: 786-0
HT-29 = tested on: HT-29
K562 = tested on: K562
A549 = tested on: A549
NCI-H23 = tested on: NCI-H23
HOP-92 = tested on: HOP-92
SNB-19 = tested on: SNB-19
NCI-H522 = tested on: NCI-H522
SW-620 = tested on: SW-620
UACC-257 = tested on: UACC-257
CCRF-CEM = tested on: CCRF-CEM
IGROV-1 = tested on: IGROV-1

Row | Compound | GI50 (M14) | GI50 (MDA-N) | GI50 (T47D) | GI50 (NCI-H226) | GI50 (UACC-62) | GI50 (A498) | GI50 (MDA-MB-435) | GI50 (SNB-75) | GI50 (786-0) | GI50 (HT-29) | GI50 (K562) | GI50 (A549) | GI50 (NCI-H23) | GI50 (HOP-92) | GI50 (SNB-19) | GI50 (NCI-H522) | GI50 (SW-620) | GI50 (UACC-257) | GI50 (CCRF-CEM) | GI50 (IGROV-1)
1 | OCCO[P+]1(OCCO)n2c3ccc2C(c2ccccc2)=C2C=CC(=N2)C(c2ccccc2)=c2ccc(n21)=C(c1ccccc1)C1=NC(=C3c2ccccc2)C=C1 | 0.163 µM (active) | 0.0344 µM (active) | 0.0251 µM (active) | 0.0579 µM (active) | 0.0303 µM (active) | 0.349 µM (active) | 0.0296 µM (active) | < 0.0144 µM (active) | 0.0764 µM (active) | 0.0281 µM (active) | 0.0109 µM (active) | 0.0389 µM (active) | 0.0327 µM (active) | 0.0382 µM (active) | 0.0133 µM (active) | 0.0405 µM (active) | 0.129 µM (active) | 0.0207 µM (active) | 0.0158 µM (active) | 0.022 µM (active)
2 | O=S(=O)(c1ccc2ccccc2c1)N1CCN(S(=O)(=O)c2ccc3ccccc3c2)CC1 | > 100 µM (inactive) | > 100 µM (inactive) | > 100 µM (inactive) | > 100 µM (inactive) | > 100 µM (inactive) | > 100 µM (inactive) | > 100 µM (inactive) | 18.9 µM (inactive) | > 100 µM (inactive) | > 100 µM (inactive) | > 100 µM (inactive) | > 100 µM (inactive) | > 100 µM (inactive) | 34.6 µM (inactive) | 69.7 µM (inactive) | > 100 µM (inactive) | > 100 µM (inactive) | > 100 µM (inactive) | > 100 µM (inactive) | > 100 µM (inactive)
3 | COc1cc(C2c3cc4c(cc3OC(N3CCOCC3)C2C)OCO4)cc(OC)c1OC(C)=O (stereo not given) | 9.06 µM (inactive) | 1.99 µM (inactive) | 17.4 µM (inactive) | 17.7 µM (inactive) | 5.53 µM (inactive) | 27.8 µM (inactive) | 2.46 µM (inactive) | 3.74 µM (inactive) | 15.8 µM (inactive) | 11.5 µM (inactive) | 3.81 µM (inactive) | 15 µM (inactive) | 31.3 µM (inactive) | 23.9 µM (inactive) | 15.5 µM (inactive) | 4.3 µM (inactive) | 6.12 µM (inactive) | 53.8 µM (inactive) | 11.7 µM (inactive) | 14.2 µM (inactive)
4 | O=C1CSC2(CC(/C=C/C=C/c3ccccc3)=NN2c2cccc(S(=O)(=O)O)c2)N1c1nc2ccccc2s1 (stereo not given) | 60.4 µM (inactive) | 52 µM (inactive) | 23.4 µM (inactive) | 24.8 µM (inactive) | 35.2 µM (inactive) | 26.4 µM (inactive) | 21.6 µM (inactive) | > 100 µM (inactive) | 40.2 µM (inactive) | 64.3 µM (inactive) | 29 µM (inactive) | 50.8 µM (inactive) | 43.8 µM (inactive) | 34.8 µM (inactive) | 36.4 µM (inactive) | 4.71 µM (inactive) | 56.2 µM (inactive) | 40.6 µM (inactive) | 20.8 µM (inactive) | 33.7 µM (inactive)
5 | CCOc1ccccc1/C=C(/C#N)C(N)=O | > 100 µM (inactive) | 18.7 µM (inactive) | > 100 µM (inactive) | > 100 µM (inactive) | 96.2 µM (inactive) | > 100 µM (inactive) | 18.2 µM (inactive) | > 100 µM (inactive) | > 100 µM (inactive) | > 100 µM (inactive) | 36.2 µM (inactive) | > 100 µM (inactive) | > 100 µM (inactive) | > 100 µM (inactive) | > 100 µM (inactive) | > 100 µM (inactive) | 60 µM (inactive) | > 100 µM (inactive) | 10.3 µM (inactive) | > 100 µM (inactive)
6 | CC(C)=CCC/C(C)=C/CC/C(C)=C/CCN(C)CCO | 1.95 µM (inactive) | 3.75 µM (inactive) | 2.78 µM (inactive) | 14.9 µM (inactive) | 13.5 µM (inactive) | 14.2 µM (inactive) | 4.44 µM (inactive) | 7.43 µM (inactive) | 2.11 µM (inactive) | 11.2 µM (inactive) | 1.54 µM (inactive) | 9.77 µM (inactive) | 11.6 µM (inactive) | 3.32 µM (inactive) | 8.07 µM (inactive) | 6.61 µM (inactive) | 3.58 µM (inactive) | 8.24 µM (inactive) | 2.39 µM (inactive) | 2.94 µM (inactive)
7 | O=C(CCBr)N1CCN(C(=O)CCBr)CC1 [PIPOBROMAN] | 57.7 µM (inactive) | 89.9 µM (inactive) | 106 µM (inactive) | 84.9 µM (inactive) | 18 µM (inactive) | 80.7 µM (inactive) | 105 µM (inactive) | 71.4 µM (inactive) | 57.9 µM (inactive) | 103 µM (inactive) | 131 µM (inactive) | 43.9 µM (inactive) | 56.4 µM (inactive) | 126 µM (inactive) | 80.2 µM (inactive) | 63.2 µM (inactive) | 89.9 µM (inactive) | 91 µM (inactive) | 15.1 µM (inactive) | 97.5 µM (inactive)
8 | COc1cc2c(c(OC)c1OC)-c1ccc(SC)c(=O)cc1[C@@H](OC(=O)c1ccncc1)CC2 | < 0.01 µM (active) | < 0.01 µM (active) | > 61.7 µM (inactive) | < 0.01 µM (active) | < 0.01 µM (active) | < 0.0116 µM (active) | < 0.01 µM (active) | < 0.01 µM (active) | < 0.01 µM (active) | < 0.01 µM (active) | < 0.01 µM (active) | < 0.01 µM (active) | < 0.01 µM (active) | 30.1 µM (inactive) | < 0.01 µM (active) | < 0.01 µM (active) | < 0.01 µM (active) | < 0.01 µM (active) | < 0.01 µM (active) | < 0.01 µM (active)
9 | CCCCCCCCCCNC1CC(OC2CC(O)(C(O)CO)Cc3c(O)c4c(c(O)c32)C(=O)c2c(OC)cccc2C4=O)OC(C)C1O (stereo not given) | 1.69 µM (inactive) | 1.5 µM (inactive) | 1.86 µM (inactive) | 1.79 µM (inactive) | 1.79 µM (inactive) | 1.5 µM (inactive) | 1.77 µM (inactive) | 1.62 µM (inactive) | 1.84 µM (inactive) | 1.33 µM (inactive) | 0.324 µM (active) | 1.58 µM (inactive) | 2.63 µM (inactive) | 1.47 µM (inactive) | 1.88 µM (inactive) | 1.76 µM (inactive) | 0.791 µM (active) | 1.72 µM (inactive) | 0.388 µM (active) | 1.74 µM (inactive)
10 | Cc1cc(-c2nc3cc(F)ccc3s2)ccc1N | 39.2 µM (inactive) | > 46.1 µM (inactive) | < 0.01 µM (active) | < 0.051 µM (active) | 39.7 µM (inactive) | 2 µM (inactive) | > 55.6 µM (inactive) | 20.4 µM (inactive) | 22.2 µM (inactive) | 29 µM (inactive) | > 49.2 µM (inactive) | 6.17 µM (inactive) | 2.79 µM (inactive) | 18.7 µM (inactive) | 35.8 µM (inactive) | 16.9 µM (inactive) | > 100 µM (inactive) | 29.9 µM (inactive) | 1.95 µM (inactive) | < 0.01 µM (active)
11 | c1ccc(C2=NCCN2)c(C2=NCCN2)c1 | > 100 µM (inactive) | > 100 µM (inactive) | > 100 µM (inactive) | > 100 µM (inactive) | > 100 µM (inactive) | > 100 µM (inactive) | > 100 µM (inactive) | > 100 µM (inactive) | > 100 µM (inactive) | > 100 µM (inactive) | > 100 µM (inactive) | > 100 µM (inactive) | > 100 µM (inactive) | > 100 µM (inactive) | > 100 µM (inactive) | > 100 µM (inactive) | > 100 µM (inactive) | > 100 µM (inactive) | > 100 µM (inactive) | > 100 µM (inactive)
